# Target: RGS4 (single-cysteine RGS4 C95) (Rattus norvegicus, UniProt P49799, C71A/C132A/C148A/C183A/C197A/C204A)
# Assay: Flow cytometry protein interaction assay
# Assay type: binding
# Chain of RGS4 (single-cysteine RGS4 C95) (P49799 52-205 C71A/C132A/C148A/C183A/C197A/C204A): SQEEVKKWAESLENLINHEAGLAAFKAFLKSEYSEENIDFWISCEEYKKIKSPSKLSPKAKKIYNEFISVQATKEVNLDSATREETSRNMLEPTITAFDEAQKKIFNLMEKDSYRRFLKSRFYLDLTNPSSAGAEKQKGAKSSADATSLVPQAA
smiles,measurement,value
"Cc1ccc(-n2sc(=O)n(Cc3ccc(F)cc3)c2=O)cc1 [compound 1, CCG-50014]",IC50,~4.5 µM
